The structures appear in SMILES notation.

The values below come from patent publication US9266834B2, “1, 4-disubstituted 3-cyano-pyridone derivatives and their use as positive allosteric modulators of MGLUR2-receptors” (JANSSEN PHARMACEUTICALS, INC., priority 2006, dated 2016).

The experiment deals with T1, human mGluR2 receptor (Homo sapiens, UniProt Q14416).
T1 construct: expressed in transfected cells; host or cells: CHO cells (membrane preparation)
T1 sequence (Q14416 19-872): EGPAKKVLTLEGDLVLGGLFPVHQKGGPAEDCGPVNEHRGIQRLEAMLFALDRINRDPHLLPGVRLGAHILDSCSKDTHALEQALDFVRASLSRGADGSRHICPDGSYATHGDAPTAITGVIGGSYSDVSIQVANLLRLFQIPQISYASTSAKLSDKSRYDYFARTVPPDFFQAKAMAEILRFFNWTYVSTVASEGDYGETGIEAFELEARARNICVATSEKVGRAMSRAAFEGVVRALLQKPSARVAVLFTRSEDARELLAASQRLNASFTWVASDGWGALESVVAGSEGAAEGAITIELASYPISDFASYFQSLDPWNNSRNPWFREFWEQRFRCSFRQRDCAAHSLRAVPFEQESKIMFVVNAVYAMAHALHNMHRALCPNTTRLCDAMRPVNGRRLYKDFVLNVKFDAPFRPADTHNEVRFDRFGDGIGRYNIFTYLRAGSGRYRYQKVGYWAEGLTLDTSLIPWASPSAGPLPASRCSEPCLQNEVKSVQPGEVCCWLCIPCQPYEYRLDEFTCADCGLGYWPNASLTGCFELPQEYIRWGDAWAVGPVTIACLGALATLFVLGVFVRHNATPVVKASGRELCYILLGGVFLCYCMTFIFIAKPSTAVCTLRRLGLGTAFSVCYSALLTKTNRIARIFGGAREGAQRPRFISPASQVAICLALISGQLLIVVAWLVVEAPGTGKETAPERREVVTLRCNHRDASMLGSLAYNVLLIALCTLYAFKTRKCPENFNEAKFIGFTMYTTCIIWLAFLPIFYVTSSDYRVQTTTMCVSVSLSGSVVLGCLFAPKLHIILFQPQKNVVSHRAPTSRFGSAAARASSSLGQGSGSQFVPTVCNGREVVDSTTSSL
Kind of experiment: [35S]GTPγS binding assay (GTPγS-PAM): positive allosteric modulation in presence of glutamate at EC25, membranes from transfected CHO cells. Particulars: in presence of mGluR2 agonist glutamate at predetermined EC25 concentration, averages of duplicate values of 11-concentration response curves, read-out: GTPgS - hR2 PAM pEC50 (converted). In kind it is biochemical. From the text:
The compounds provided in the present invention are positive allosteric modulators of mGluR2. These compounds appear to potentiate glutamate responses by binding to an allosteric site other than the glutamate binding site. The response of mGluR2 to a concentration of glutamate is increased when compounds of Formula (I) are present. Compounds of Formula (I) are expected to have their effect substantially at mGluR2 by virtue of their ability to enhance the function of the receptor. The behaviour of positive allosteric modulators tested at mGluR2 using the [^35S]GTPγS binding assay method described below and which is suitable for the identification of such compounds, and more particularly the compounds according to Formula (I), are shown in Table 4.
[^35S]GTPγS Binding Assay
The [^35S]GTPγS binding is a functional membrane-based assay used to study G-protein coupled receptor (GPCR) function whereby incorporation of a non-hydrolysable form of GTP, [^35S]GTPγS (guanosine 5′-triphosphate, labelled with […] ^35S), is measured. The G-protein o subunit catalyzes the exchange of guanosine 5′-diphosphate (GDP) by guanosine triphosphate (GTP) and on activation of the GPCR by an agonist, [^35S]GTPγS, becomes incorporated and cannot be cleaved to continue the exchange cycle (Harper (1998) Current Protocols in Pharmacology 2.6.1-10, John Wiley & Sons, Inc.). […] Here we describe the use of the [^35S]GTPγS binding assay using membranes from cells transfected with the human mGluR2 receptor and adapted from Schaffhauser et al ((2003) Molecular Pharmacology 4:798-810) for the detection of the positive allosteric modulation (PAM) properties of the compounds of this invention.
CHO-cells were cultured to pre-confluence and stimulated with 5 mM butyrate for 24 hours, prior to washing in PBS, and then collection by scraping in homogenisation buffer (50 mM Tris-HCl buffer, pH 7.4, 4° C.). Cell lysates were homogenized briefly (15 s) using an ultra-turrax homogenizer. The homogenate was centrifuged at 23 500×g for 10 minutes and the supernatant discarded. The pellet was resuspended in 5 mM Tris-HCl, pH 7.4 and centrifuged again (30 000×g, 20 min, 4° C.). The final pellet was resuspended in 50 mM HEPES, pH 7.4 and stored at −80° C. in appropriate aliquots before use. Protein concentration was determined by the Bradford method (Bio-Rad, USA) with bovine serum albumin as standard.
Measurement of mGluR2 positive allosteric modulators in membranes containing human mGluR2 was performed using frozen membranes that were thawed and briefly homogenised prior to pre-incubation in 96-well microplates (15 μg/assay well, 30 minutes, 30° C.) in assay buffer (50 mM HEPES pH 7.4, 100 mM NaCl, 3 mM MgCl2, 50 μM GDP, 10 μg/ml saponin,) with increasing concentrations of positive allosteric modulator (from 0.3 nM to 50 μM) and either a minimal pre-determined concentration of glutamate (PAM assay), or no added glutamate. For the PAM assay, membranes were pre-incubated with glutamate at EC25 concentration, i.e. a concentration that gives 25% of the maximal response glutamate, and is in accordance to published data (Pin et al. (1999) Eur. J. Pharmacol. 375:277-294). After addition of [^35S]GTPγS (0.1 nM, f.c.) to achieve a total reaction volume of 200 μl, microplates were shaken briefly and further incubated to allow [^35S]GTPγS incorporation on activation (30 minutes, 30° C.). The reaction was stopped by rapid vacuum filtration over glass-fibre filter plates (Unifilter 96-well GF/B filter plates, Perkin-Elmer, Downers Grove, USA) microplate using a 96-well plate cell harvester (Filtermate, Perkin-Elmer, USA), and then by washing three times with 300 μl of ice-cold wash buffer (Na2PO4.2H2O 10 mM, NaH2PO4.H2O 10 mM, pH=7.4). Filters were then air-dried, and 40 μl of liquid scintillation cocktail (Microscint-O) was added to each well, and membrane-bound [^35S]GTPγS was measured in a 96-well scintillation plate reader (Top-Count, Perkin-Elmer, USA). […]
On the technique in general: GTPγS is a poorly hydrolysed GTP analogue; its binding reports G protein activation.
Regarding `N#Cc1c(N2CCN(c3ccccn3)CC2)ccn(Cc2ccc(F)cc2)c1=O` [2-055], the EC50 is 3.98 µM.

Consider `CC(C)CCn1ccc(C2CCN(Cc3ccccc3)C2)c(C#N)c1=O` (stereo not shown) [5-007], for which the EC50 is 1.26 µM.

Consider `COc1cc(-c2ccn(CCC(C)C)c(=O)c2C#N)ccc1OCc1ccccc1` [1-142], for which the EC50 was 0.316 µM.

`N#Cc1c(N2CCN(Cc3cc(F)cc(F)c3)CC2)ccn(Cc2ccc(F)cc2)c1=O` [2-052]: the EC50 is 3.98 µM.

Consider `CCCCn1ccc(N[C@H]2CC[C@H](c3ccccc3)CC2)c(C#N)c1=O` [1-297], for which the EC50 was 0.2 µM.

`CC(C)CCn1ccc(-c2ccc(OCCC3(C)OCCO3)cc2)c(C#N)c1=O` [1-136]: the EC50 was 0.631 µM.

Take `CCCCn1ccc(OC2CCN(Cc3cccc(C(F)(F)F)c3)CC2)c(C#N)c1=O` [3-002]: the EC50 is 1.26 µM.

For the compound `CC1CN(Cc2cc(F)cc(F)c2)CCN1c1ccn(Cc2ccc(OC(F)(F)F)cc2)c(=O)c1C#N` (stereo not shown) [2-045], the EC50 was 0.501 µM.

In the case of `COC(=O)c1cccc(-c2ccn(CCC(C)C)c(=O)c2C#N)c1` [1-242], the EC50 was 3.98 µM.

Consider `CCCCn1ccc(-c2ccc(Cn3ccnc3C)cc2)c(C#N)c1=O` [1-060], for which the EC50 was 1 µM.

Regarding `CC(C)CCn1ccc(-c2cccc3[nH]ccc23)c(C#N)c1=O` [5-017], the EC50 was 0.794 µM.

Take `CC(C)CCn1ccc(C#Cc2cccc(N(C)C)c2)c(C#N)c1=O` [1-269]: the EC50 is 0.158 µM.

In the case of `CC(C)CCn1ccc(-c2ccc3c(c2)OCCO3)c(C#N)c1=O` [1-253], the EC50 is 0.501 µM.

Turning to `CN(Cc1cccc(C(F)(F)F)c1)C1CCN(c2ccn(CCOc3ccccc3)c(=O)c2C#N)CC1` [4-065], the EC50 was 0.0316 µM.

As for `CC(C)CCn1ccc(N2CCN(CCc3ccccc3)CC2)c(C#N)c1=O` [2-017], the EC50 was 0.2 µM.

With `COc1cccc(CCc2ccn(CCC(C)C)c(=O)c2C#N)c1` [1-264], the EC50 was 1.58 µM.

For the compound `CCCCn1ccc(N2CCN(c3nccc(OC)n3)CC2)c(C#N)c1=O` [2-007], the EC50 is 1 µM.

As to `N#Cc1c(N2CCC(N3CCc4ccccc4C3)CC2)ccn(Cc2ccc(OC(F)(F)F)cc2)c1=O` [4-051], the EC50 is 0.501 µM.

In the case of `CC(C)CCn1ccc(-c2ccc(OCc3ccccc3)cc2)c(C#N)c1=O` [1-141], the EC50 is 0.0631 µM.

With `CC(C)CCn1ccc(N2CCN(Cc3ccc4c(c3)OCO4)CC2)c(C#N)c1=O` [2-016], the EC50 was 0.631 µM.

With `CC(C)CCn1ccc(N2CCC(N(C)Cc3ccccc3)CC2)c(C#N)c1=O` [4-026], the EC50 was 1.58 µM.

With `CC(C)CCn1ccc(OC2CCN(Cc3cccc(C(F)(F)F)c3)CC2)c(C#N)c1=O` [3-008], the EC50 is 0.316 µM.

With `CC(C)CCn1ccc(-c2ccc(OCCO)cc2)c(C#N)c1=O` [1-099], the EC50 was 1 µM.

Regarding `CC(C)CCn1ccc(C=Cc2ccccc2)c(C#N)c1=O` [1-261], the EC50 was 0.2 µM.

For `CCCCn1ccc(-c2ccc(Oc3ccncn3)cc2)c(C#N)c1=O` [1-075], the EC50 was 5.01 µM.

On to `CC(C)CCn1ccc(OCc2ccc(C(F)(F)F)cc2)c(C#N)c1=O` [1-277], for which the EC50 is 0.251 µM.

`N#Cc1c(N2CCN(Cc3ccccc3)CC2)ccn(CCOCc2ccccc2)c1=O` [2-054]: the EC50 was 5.01 µM.

On to `CC(C)CCn1ccc(N2CCN(c3ccc(-c4ccccc4)nn3)CC2)c(C#N)c1=O` [2-033], for which the EC50 was 2 µM.

`CC(C)CCn1ccc(N2CCN(CCOc3ccc(F)cc3)CC2)c(C#N)c1=O` [2-019]: the EC50 was 6.31 µM.

With `CC(C)CCn1ccc(N2CCC(OCc3ccc(OC(F)(F)F)cc3)CC2)c(C#N)c1=O` [4-022], the EC50 was 0.0501 µM.

With `COc1ccccc1N1CCCN(c2ccn(CCC(C)C)c(=O)c2C#N)CC1` [5-044], the EC50 was 1 µM.

Turning to `CC(C)CCn1ccc(N2C[C@@H]3C[C@H]2CN3Cc2ccccc2)c(C#N)c1=O` [5-004], the EC50 was 5.01 µM.

As for `CCCCn1ccc(N2CCN(c3ncc(C4CC4)cn3)CC2)c(C#N)c1=O` [2-006], the EC50 is 0.158 µM.

For `COCCCc1ccc(-c2ccn(CCC(C)C)c(=O)c2C#N)cc1` [1-106], the EC50 is 0.631 µM.

Regarding `Cc1nc(-c2ccccc2)sc1-c1ccn(CCC(C)C)c(=O)c1C#N` [5-028], the EC50 is 0.316 µM.

Turning to `CC(C)CCn1ccc(-c2ccc(NC3CC3)cc2)c(C#N)c1=O` [1-187], the EC50 is 0.126 µM.

Turning to `COc1cc(-c2ccn(CCC(C)C)c(=O)c2C#N)ccc1OCc1ccncc1` [1-167], the EC50 is 0.501 µM.

For the compound `N#Cc1c(N2CCN(Cc3ccncc3)CC2)ccn(Cc2ccc(OC(F)(F)F)cc2)c1=O` [2-047], the EC50 is 5.01 µM.

As to `CC(C)CCn1ccc(-c2ccc(Cl)s2)c(C#N)c1=O` [1-083], the EC50 is 0.2 µM.

On to `CN(Cc1ccccc1)C1CCN(c2ccn(Cc3ccc(F)cc3)c(=O)c2C#N)CC1` [4-056], for which the EC50 is 5.01 µM.

For `Cc1c(-c2ccn(CCC(C)C)c(=O)c2C#N)cnn1-c1ccccc1` [5-027], the EC50 is 0.316 µM.

For `CC(C)CCn1ccc(-c2ccc(-c3cnco3)cc2)c(C#N)c1=O` [1-250], the EC50 was 1.58 µM.

As to `CCCCn1ccc(-c2ccc(Oc3ccncc3)cc2F)c(C#N)c1=O` [1-066], the EC50 was 0.501 µM.

Turning to `COc1cc(-c2ccn(CCC(C)C)c(=O)c2C#N)ccc1OC(C)=O` [1-125], the EC50 is 5.01 µM.

Consider `COc1cc(-c2ccn(CCC(C)C)c(=O)c2C#N)ccc1NC(C)C` [1-183], for which the EC50 was 0.251 µM.

With `CCCCn1ccc(-c2cccc(Oc3ccccn3)c2)c(C#N)c1=O` [1-061], the EC50 is 6.31 µM.

As to `CC(C)CCn1ccc(-c2ccc3c(cnn3Cc3ccncc3)c2)c(C#N)c1=O` [5-025], the EC50 was 0.398 µM.

As to `CC(C)CCn1ccc(Nc2ccc(Oc3ccncc3)cc2)c(C#N)c1=O` [1-302], the EC50 was 1.26 µM.

For `CC(C)CCn1ccc(CCc2cccc(N(C)C)c2)c(C#N)c1=O` [1-262], the EC50 is 1.58 µM.

Take `COc1cc(-c2ccn(CCC(C)C)c(=O)c2C#N)ccc1O` [1-108]: the EC50 is 6.31 µM.

As to `CCOc1ccc(-c2ccn(CCC(C)C)c(=O)c2C#N)cc1` [1-104], the EC50 was 2 µM.

Take `CC(C)CCn1ccc(C#Cc2ccccc2)c(C#N)c1=O` [1-267, 3-cyano-1-(3-methylbutyl)-4-(phenylethynyl)pyridine-2(1H)-one]: the EC50 is 0.0794 µM.

On to `CC(C)Oc1ccc(-c2ccn(CCOc3ccccc3)c(=O)c2C#N)cc1Cl` [1-049], for which the EC50 is 0.126 µM.

With `CCCCn1ccc(N2CCN(c3nccc(NCC)n3)CC2)c(C#N)c1=O` [2-008], the EC50 was 1.58 µM.

With `CC(C)CCn1ccc(-c2ccc(OCc3nnc[nH]3)cc2)c(C#N)c1=O` [1-168], the EC50 was 6.31 µM.

In the case of `CCCCn1ccc(N2CCN(c3cnc(N4CCOCC4)nc3)CC2)c(C#N)c1=O` [2-009], the EC50 was 6.31 µM.

Consider `CC(C)CCn1ccc(-c2ccc3c(ccn3-c3ccccc3)c2)c(C#N)c1=O` [5-019], for which the EC50 was 0.0501 µM.

As for `COc1ccc(-c2ccn(Cc3ccccc3C)c(=O)c2C#N)cc1` [1-016], the EC50 is 2 µM.

As for `Cc1ccc(-c2ccn(CCC(C)C)c(=O)c2C#N)cc1[N+](=O)[O-]` [1-214], the EC50 was 0.794 µM.

For `CC(C)CCn1ccc(-c2ccc(NCc3cccnc3)cc2)c(C#N)c1=O` [1-209], the EC50 was 1.26 µM.

Consider `CC(C)CCn1ccc(-c2ccc(Oc3ccccn3)cc2)c(C#N)c1=O` [1-154], for which the EC50 was 0.501 µM.
